How the values were obtained:
Type in all cases: cell-based
[1] = Cell viability (MTT assay) in BV2 cells; conditions: mouse, BV2 microglial cells, mean ± SEM (n = 5)
Experimental: The cytotoxicity of compounds 1–7 was evaluated using the MTT (3-(4,5-dimethylthiazol-2-yl)-2,5-diphenyltetrazolium bromide) assay. The microglial BV2 cell line was obtained from the Rio de Janeiro Cell Bank (BCRJ), Brazil. The cells were cultured in Roswell Park Memorial Institute medium (RPMI; Sigma Aldrich, St. Louis, MO, USA) supplemented with 10% fetal bovine serum (FBS; Gibco, Grand Island, NY, USA) and 1% penicillin-streptomycin (Sigma Aldrich) at 37 °C with 5% CO2. Cells were seeded into 96-well plates at 1 × 10^5 cells/mL and incubated overnight. After that, the cells were incubated with compounds 1 to 7 (12.5, 25, or 50 μM) in five replicates for 24 h. Then, 110 μL of the supernatant were removed, and 10 μL of MTT solution (5 mg/mL) (Sigma Aldrich, St. Louis, MO, USA) were added. The plates were further incubated for four hours, followed by the addition of sodium dodecyl sulfate (SDS) (100 µL/well) to dissolve the formazan. Optical densities were measured using a spectrophotometer (BioTek Instruments microplate reader, Sinergy HT, Winooski, VT, USA) at a wavelength of 570 nm.

[2] = test system: nitric oxide production in LPS and IFN-γ-stimulated BV2 cells; assay: Nitric oxide (nitrite, Griess method) measurement in LPS and IFN-γ-stimulated BV2 cells; conditions: 24 h; for Effect on nitrite (NO) levels versus control group: LPS and IFN-γ-stimulated BV2 cells; for IC50: Mus musculus, BV-2, LPS (500 ng/mL) and IFN-γ (5 ng/mL)-stimulated BV2 cells, 3.125–25 µM, mean ± SEM, read-out: IC50 on nitric oxide production inhibition
Experimental: (§1) To determine the NO and TNF-α levels, BV2 cells were seeded in 96-well plates (1 × 10^6 cells/mL) in RPMI medium supplemented with 10% FBS and 1% penicillin-streptomycin in a 5% CO2 incubator at 37 °C. After four hours, the cells were exposed to LPS (500 ng/mL, Sigma Aldrich) and IFN-γ (5 ng/mL, Thermo Fisher) in the absence or presence of compounds 1 to 7 at a final concentration of 12.5 µM (for NO and TNF-α measurement) or 3.125–25 µM (to calculate the IC50 values on NO production inhibition), in five replicates. Quercetin (20 µM) was used as a positive control. After 24 h, cell-free supernatants were collected for NO quantification using the Griess method or stored at −80 °C for cytokine concentration determination. The TNF-α concentrations in the BV2 cell culture supernatants were assessed via enzyme-linked immunosorbent assay (ELISA) with an Invitrogen kit (Thermo Fisher, Viena, Austria).

[3] = test system: TNF-α release from LPS and IFN-γ-stimulated BV2 cells; assay: TNF-α measurement (ELISA) in LPS and IFN-γ-stimulated BV2 cells; conditions: 12.5 µM, 24 h
Experimental: as §1

Row | SMILES | viability at 24 h, 12.5 µM [1] [%] | viability at 24 h, 25 µM [1] [%] | viability at 24 h, 50 µM [1] [%] | Effect on nitrite (NO) levels versus control group ([2]; 12.5 µM) | IC50 [2] [µM] | Effect on TNF-α levels versus control group [3] | Effect on nitrite (NO) levels versus control group ([2]; 20 µM (positive control))
1 | CC(C)C1=CC(=O)C2=C(C1=O)C(O)CC1C2(C)CC(O)C(O)C1(C)C (stereo not shown) [Compound 1, Medusanthol A] | 88 ± 2.57 | 85.1 ± 1.54 | 76.3 ± 2.16 | significantly reduced nitrite levels | 3.12 ± 0.75 | significantly reduced TNF-α levels | –
2 | CC(C)c1cc2c(cc1O)C1(C)CC(O)C(O)C(C)(C)C1CC2=O (stereo not shown) [Compound 2, Medusanthol B] | 81.93 ± 0.65 | 85.84 ± 0.85 | 75 ± 3.11 | significantly reduced nitrite levels | 15.5 ± 7.56 | significantly reduced TNF-α levels | –
3 | CC(C)c1cc2c(cc1O)C1(C)CC(O)C(O)C(C)(C)C1CC2 (stereo not shown) [Compound 3, Medusanthol C] | 87.4 ± 2.35 | 82.2 ± 0.96 | 76.4 ± 3.14 | significantly reduced nitrite levels | – | – | –
4 | CC(C)c1cc2c(cc1O)[C@@]1(C)C[C@@H](O)CC(C)(C)[C@@H]1CC2 [Compound 4, salviol] | 92.29 ± 0.6 | 85.41 ± 0.82 | 73.6 ± 2.73 | significantly reduced nitrite levels | – | – | –
5 | CC(=O)OC1CC(C)(C)C2CCc3cc(C(C)C)c(O)cc3C2(C(=O)O)C1 (stereo not shown) [Compound 5, Medusanthol D] | 86.2 ± 4.53 | 86.8 ± 2.52 | 82.9 ± 3.63 | No significant effect | – | – | –
6 | CC(C)c1cc2c(cc1O)[C@@]1(C)C[C@@H](O)CC(C)(C)[C@@H]1CC2=O [Compound 6, 2α-hydroxysugiol] | 85.7 ± 1.11 | 81.7 ± 1.37 | 66.8 ± 3.61 | No significant effect | – | – | –
7 | CC(=O)OC1CC(C)(C)C2CC3OC(=O)C2(C1)c1cc(O)c(C(C)C)cc1O3 (stereo not shown) [Compound 7, Medusanthol E] | 82.74 ± 0.62 | 84.9 ± 1.4 | 81.8 ± 1.24 | significantly reduced nitrite levels | – | – | –
8 | O=c1c(O)c(-c2ccc(O)c(O)c2)oc2cc(O)cc(O)c12 [Quercetin, quercetin, reference compound] | – | – | – | – | 11.8 ± 1.5 | – | significantly reduced nitrite levels

Source: publication PMC11207065, “Abietane Diterpenes from Medusantha martiusii and Their Anti-Neuroinflammatory Activity” (Molecules, 2024)
